This is an account of results in patent publication US20260259231A1, “METHODS AND DEVICES FOR DETECTION OF COAGULATION IMPAIRMENT” (Coagulo Medical Technologies, Inc., priority 2021, published 2026).

Like-named read-outs stand apart in the source and are kept apart here.

Assay [1] can be described thus: PT and INR of patients on FXa-I versus controls. The class given is in vivo, human. Particulars: patients documented to be on FXa-I; significance p<0.05. The source says:
FIGS. 18A-18C illustrate prothrombin time (PT) and international normalized ratio (INR) is sensitive but not specific for FXa-I anticoagulation. Both PT and INR were compared between control patients and patients documented to be on FXa-I. Abnormal PT was defined as >14 seconds and abnormal INR was defined as >1.2. […] One-way ANOVA was used to compare normal and abnormal controls with both rivaroxaban and apixaban. Significance was defined as p<0.05.

For the next assay, the target named is T1, FXa (Homo sapiens, UniProt P00742).
T1 construct: Citrated plasma samples were collected from patients; from tissue; host or cells: citrated plasma of patients
Put plainly: Clotting curves of citrated plasma from emergency department patients on FXa-I. The class given is in vivo. The conditions noted are these: patient plasma samples.

The target in another assay is Factor Xa (FXa) (Homo sapiens, UniProt P00742). Kind of assay: Microfluidic clotting-curve assay, plasma spiked with FXa inhibitor, FXa agonist gradient. The class given is biochemical. An excerpt: (§1) A general protocol for performing the assay according to an embodiment of the invention is as follows: • a) Add together sample, agonist, +/−calcium, +/−clot detection agent • i. Calcium to a final concentration between 0.005-0.05 M (This concentration is particularly suitable for use with 3.2% buffered sodium citrate. If another anticoagulant is used, the concentration of calcium may not be 0.02 M.) • ii. Clot detection agents can include fluorescent labeled fibrinogen, magnets, beads (may be fluorescent or colored) • b) Load into microfluidic device • i. See, e.g., FIGS. 1A-1D, 2A and 2B for examples of input loading configuration and order • c) Temperature control • i. Room temperature • ii. May increase up to 37° C.
(§2) In an example, the process of clot detection can include the following procedural steps: • a) A plasma sample is pre-mixed to include: 6 μL plasma+0.6 μL agonist (10% volume to sample)+0.6 μL Calcium (stock 200 mM, 10% volume to sample)+0.6 μL Fibrinogen (this can vary in concentration, in general <10% volume of sample).
(§3) The time it takes for each of the combinations to form a clot is then plotted. […] Concentration of the agonist (FXa for FIGS. 7A-7C, and FIIa for FIG. 7D) is plotted on the X-axis for each of the figures. The units on the X-axis “ng/mL” refer to ng×10^3/mL.

For assay [2], the system named is contact activation pathway (intrinsic pathway). Kind of assay: Clotting times of control and factor-deficient plasmas with exogenous coagulation factors (FIG. 25). In kind it is biochemical. An excerpt: FIG. 25 is a table providing representative clotting times (minutes:seconds) for various plasma samples in the presence of exogenous coagulation factors. […] The clotting time for the control plasma, with no exogenous factor added (negative control), represents the clotting time based on activation of the contact activation pathway (intrinsic pathway); this clotting time can be designated as normal clotting time. […] The clotting time of the FVIII-deficient plasma decreases with the addition of FVIII or FIXa. […] The clotting time of FIX-deficient plasma decreases with the addition of exogenous FIX or FIXa. In all plasma samples, exogenous FXa is used as a positive control to confirm the ability of the plasma sample to clot. FIIa can also be used for this purpose.

A further assay deals with Factor IX (Homo sapiens, UniProt P00740). Kind of assay: Clotting curve, Factor IX added to FIX-deficient plasma or plasma with anti-Factor IX antibodies (FIG. 26). In kind it is biochemical. An excerpt:
It should be understood that the use of exogenous factor addition to a plasma sample may not be able to differentiate between deficiency and low quantities of inhibitors, for example, if the concentration of the inhibitor is low enough such that a physiological level of the factor is able to overcome the functional inhibition resulting in a normalized clotting time. Additionally, the inhibitor detected using the clotting time approach is a functional inhibitor such that the inhibitor decreases the factor's ability to propagate a blood clot.

The target in a further assay is FIIa (Homo sapiens, UniProt P00734).
Description: as §1, §2, §3

The subject of assay [3] is coagulation cascade (FXa, FIIa, FXI inhibition). Kind of assay: Clotting time of inhibitor-spiked blood samples on addition of buffer, FXa or FIIa (FIG. 33B). Particulars: for clotting time, control condition: no exogenous factor added, contact activation pathway activator; for clotting time upon addition of exogenous FIIa: two concentrations of FIIa; for clotting time upon addition of exogenous FXa: two concentrations of FXa. The method, then: The control condition (where no exogenous factor is added) utilizes an activator of the contact activation pathway to activate FXII to FXIIa. FIG. 33B is a bar graph showing the clotting time responses to the addition of buffer (control), two concentrations of FXa, and two concentrations of FIIa. […] The amount of exogenous FIIa added to the sample was inadequate to overcome all of the FIIa inhibition present in the sample. In these examples in FIG. 33B, when a sample's clotting time normalizes to the negative control clotting time, such a result is also described as an “unaffected” clotting time in the figures depicting the pathways.

The next assay concerns the target FXI (Homo sapiens, UniProt P03951). Kind of assay: Clotting time of inhibitor-spiked whole blood samples on addition of exogenous FXI (FIG. 33A, 33C). Particulars: FIG. 33C; FXI inhibitor at Conc 1<Conc 2<Conc 3. Here is the method: FIG. 33A provides representative clotting-curves of whole blood samples spiked with a concentration of FXI inhibitor (inh) (Conc 1<Conc 2<Conc 3); no inhibitor was added to the negative control. The curves show the samples' respective changes in clotting time as a response to the addition of increasing concentrations of exogenous FXI.
FIG. 33C reports the effect of the addition of exogenous FXI on the clotting time of various samples. In this example, the negative control, containing no inhibitor, has an unaffected clotting time with the addition of FXI.

Another assay has as its system Factors IIa and Xa. Kind of assay: Whole blood clot detection in parallel microfluidic channels pre-coated with FXa. The conditions noted are these: whole blood with unfractionated heparin, 10 minutes. The method, then: FIGS. 4A and 4B are fluorescent images illustrating clot detection using whole blood in a parallel microfluidic channel device 410 according to an example embodiment. Microfluidic channels 420 were pre-coated with agonist, Factor Xa, at various concentrations (7.5 ng/ml, 75 ng/ml, 750 ng/ml; units “ng/mL” refer to ng×10^3/mL) or with buffer alone (negative control). The fluorescent images are taken at one time point (10 minutes). Microfluidic channels were washed with buffer prior to use to leave only bound FXa within the microfluidic channel. Fresh whole blood was placed into each input port and the blood was drawn in through capillary action. The blood was left to flow for 10 minutes and then the channel was gently washed with buffer. Depicted is a brightfield image of two samples evaluated. […] Unfractionated heparin inhibits Factors IIa and Xa in an antithrombin III-dependent fashion, which is why the addition of these factors at appropriate concentrations can help recover the clotting capability of the sample.

Chain of Factor Xa (FXa) (P00742 235-488 limits assumed): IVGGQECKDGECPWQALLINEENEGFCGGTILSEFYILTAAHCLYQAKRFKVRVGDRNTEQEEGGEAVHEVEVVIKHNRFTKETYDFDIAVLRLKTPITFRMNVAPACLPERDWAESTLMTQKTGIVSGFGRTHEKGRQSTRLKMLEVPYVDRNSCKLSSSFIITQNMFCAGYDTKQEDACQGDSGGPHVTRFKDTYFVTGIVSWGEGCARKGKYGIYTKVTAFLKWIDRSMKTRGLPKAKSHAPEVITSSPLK
Chain of Factor Xa (FXa) (P00742 41-179 partner limits assumed): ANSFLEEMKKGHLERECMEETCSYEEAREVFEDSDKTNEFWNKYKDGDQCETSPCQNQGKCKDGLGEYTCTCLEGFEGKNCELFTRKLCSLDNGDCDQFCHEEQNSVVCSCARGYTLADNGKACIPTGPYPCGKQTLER
Chain of Factor IX (P00740 29-461 limits assumed): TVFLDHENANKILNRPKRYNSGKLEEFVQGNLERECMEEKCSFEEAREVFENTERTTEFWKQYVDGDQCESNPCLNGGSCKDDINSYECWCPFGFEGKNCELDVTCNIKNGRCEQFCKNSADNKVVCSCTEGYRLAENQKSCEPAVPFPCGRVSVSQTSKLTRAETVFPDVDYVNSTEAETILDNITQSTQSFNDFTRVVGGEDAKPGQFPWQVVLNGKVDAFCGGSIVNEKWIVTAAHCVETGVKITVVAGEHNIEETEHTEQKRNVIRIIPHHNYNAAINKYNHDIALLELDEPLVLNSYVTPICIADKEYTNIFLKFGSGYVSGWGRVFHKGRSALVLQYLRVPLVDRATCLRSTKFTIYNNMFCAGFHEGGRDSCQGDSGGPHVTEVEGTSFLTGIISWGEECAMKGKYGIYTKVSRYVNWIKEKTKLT
T1 sequence (P00742 235-488 limits assumed): as the sequence (P00742 235-488 limits assumed) above
T1 sequence (P00742 41-179 partner limits assumed): as the sequence (P00742 41-179 partner limits assumed) above
Chain of FXI (P03951 19-625, species assumed): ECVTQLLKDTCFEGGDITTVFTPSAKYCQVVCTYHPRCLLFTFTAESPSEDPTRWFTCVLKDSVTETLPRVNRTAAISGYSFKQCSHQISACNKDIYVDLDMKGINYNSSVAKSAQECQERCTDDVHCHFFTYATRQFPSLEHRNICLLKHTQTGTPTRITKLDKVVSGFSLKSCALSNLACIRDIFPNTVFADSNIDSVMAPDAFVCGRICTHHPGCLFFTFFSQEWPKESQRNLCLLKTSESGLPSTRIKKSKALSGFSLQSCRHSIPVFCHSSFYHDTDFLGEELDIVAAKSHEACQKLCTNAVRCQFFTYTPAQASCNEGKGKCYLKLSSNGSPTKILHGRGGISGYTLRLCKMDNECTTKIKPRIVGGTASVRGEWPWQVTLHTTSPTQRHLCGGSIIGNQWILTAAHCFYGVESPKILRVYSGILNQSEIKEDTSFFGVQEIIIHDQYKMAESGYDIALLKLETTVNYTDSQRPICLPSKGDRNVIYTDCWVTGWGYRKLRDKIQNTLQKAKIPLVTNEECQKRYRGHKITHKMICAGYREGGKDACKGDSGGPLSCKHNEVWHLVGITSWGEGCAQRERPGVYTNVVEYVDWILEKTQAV

Regarding `O=C(NC[C@H]1CN(c2ccc(N3CCOCC3=O)cc2)C(=O)O1)c1ccc(Cl)s1` [Rivaroxaban], in assay [1], the “PT and INR compared to abnormal controls (one-way ANOVA)” value is reported as “no significance”. Further, at FXa, the “clotting times at various agonist concentrations, patient group versus control group” value is on record as “very different from the control group”. The “clot formation time versus negative control” value on Factor Xa (FXa) (250 ng/mL Rivaroxaban, FXa agonist down to 375 ng×10^3/mL) is listed as “significantly longer than the negative control but lower than 500 ng/mL”. For the same compound, the “agonist (FXa) concentration down to which clot formation detected in <[…]” value on Factor Xa (FXa) (500 ng/ml Rivaroxaban) is listed as 750 ng×10^3/mL. The “clot formation detection time” value at Factor Xa (FXa) (500 ng/ml Rivaroxaban, FXa agonist down to 750 ng×10^3/mL) was under 2.5 min.

On to “FIX: exogenous coagulation Factor IX, inactive form”, for which the “clotting time upon addition of exogenous factor” value was “decreases” in assay [2] (FIX-deficient plasma), “prolonged clotting time” in assay [2] (FVIII-deficient plasma), “prolonged clotting time” in [2] (FXI-deficient plasma) and “slight decrease in clotting time” in [2] (control (normal) plasma). Further, in the assay with Factor IX (Factor IX-deficient plasma), the “concentration of added factor needed for normal clotting time” value is “requires a physiological concentration of replacement factor”. The “concentration of added factor needed to decrease clotting time” value in the assay with Factor IX (plasma containing anti-Factor IX antibodies) is reported as “requires supra-physiological concentrations of the factor”.

For “FXI: exogenous coagulation Factor XI, inactive form”, the “clotting time upon addition of exogenous factor” value in [2] (FIX-deficient plasma) is “prolonged clotting time”; in assay [2] (FVIII-deficient plasma), “prolonged clotting time”; in [2] (FXI-deficient plasma), “decreases”; in [2] (control (normal) plasma) it was “slight decrease in clotting time”.

For Dabigatran, the “clot formation detection time” value at FIIa (250 ng/mL Dabigatran, FIIa agonist down to 710 ng×10^3/mL) was under 2.5 min. Further, the “clot formation detection time” value at FIIa (500 ng/ml Dabigatran, FIIa agonist down to 710 ng×10^3/mL) is under 2.5 min. The “clot formation detection time” value on FIIa (<25 ng/ml Dabigatran, FIIa agonist down to 71 ng×10^3/mL) is under 2.5 min. In [3], the “clotting time, control condition” value is “prolongation of clotting time”; the “clotting time upon addition of exogenous FIIa” value was “concentration-dependent change in clotting time”; the “clotting time upon addition of exogenous FXa” value is “relatively small concentration-dependent change in clotting time”.

For the compound `COc1ccc(-n2nc(C(N)=O)c3c2C(=O)N(c2ccc(N4CCCCC4=O)cc2)CC3)cc1` [Apixaban], the “PT and INR compared to abnormal controls (one-way ANOVA)” value in assay [1] is reported as “no significance”. Also, the “clotting time with addition of exogenous FXI” value at FXI is on record as “prolongation in clotting time”. Also, in assay [3], the “clotting time, control condition” value is on record as “prolongation of clotting time”; the “clotting time upon addition of exogenous FIIa” value is “shortened and normalized clotting time”; the “clotting time upon addition of exogenous FXa” value was “concentration-dependent clotting-time response”.

Take unfractionated heparin: the “clot formation in negative control channel (buffer alone)” value in the assay on Factors IIa and Xa was “minimal clot formation”. The “clot formation in FXa-coated channels” value with Factors IIa and Xa (FXa 7.5, 75, 750 ng×10^3/mL) was “gradient of clot formation dependent on the concentration of FXa in the channel”.
